Here are results for 24 compounds from patent publication US8420670B2 (Abbott Laboratories, priority 2007, dated 2013).

One assay concerns the target T1, human GlyT1c transporter (Homo sapiens, UniProt P48067).
T1 construct: expressed in transfected cells; host or cells: recombinant hGlyT1-expressing cells
T1 sequence (P48067 1-706): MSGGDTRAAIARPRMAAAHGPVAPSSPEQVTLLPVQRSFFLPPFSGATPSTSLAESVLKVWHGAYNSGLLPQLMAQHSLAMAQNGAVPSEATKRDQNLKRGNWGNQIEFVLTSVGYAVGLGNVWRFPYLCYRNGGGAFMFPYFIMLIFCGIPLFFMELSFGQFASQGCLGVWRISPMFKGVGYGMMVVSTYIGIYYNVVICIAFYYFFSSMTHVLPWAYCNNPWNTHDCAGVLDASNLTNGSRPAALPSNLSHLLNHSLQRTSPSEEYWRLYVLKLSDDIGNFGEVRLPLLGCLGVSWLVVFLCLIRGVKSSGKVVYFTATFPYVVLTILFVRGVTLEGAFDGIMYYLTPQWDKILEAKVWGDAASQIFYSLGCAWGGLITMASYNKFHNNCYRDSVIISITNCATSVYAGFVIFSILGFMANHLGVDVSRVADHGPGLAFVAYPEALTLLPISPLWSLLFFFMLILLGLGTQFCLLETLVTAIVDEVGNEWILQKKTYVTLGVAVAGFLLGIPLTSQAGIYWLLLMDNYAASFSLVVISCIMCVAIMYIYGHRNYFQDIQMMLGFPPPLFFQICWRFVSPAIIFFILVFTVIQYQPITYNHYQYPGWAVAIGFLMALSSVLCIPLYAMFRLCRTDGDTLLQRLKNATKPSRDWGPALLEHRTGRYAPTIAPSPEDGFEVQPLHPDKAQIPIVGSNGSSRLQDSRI
As to the kind of experiment: [3H]-(R)-NPTS radioligand binding assay using recombinant hGlyT1 expressing cell membranes. The note with it: 0.5 nM [3H]-(R)-NPTS, apparent Ki via Cheng-Prusoff, read-out: [3H]-(R)-NPTS bindung Ki. The procedure: 2. [^3H]-(R)-NPTS Radioligand Binding Assays using Recombinant hGlyT1 Expressing Cell Membranes:
Radioligand binding to human GlyT1c transporter-expressing membranes was measured in duplicate in a total volume of 200 μl in 96-well plates. To 100 μl of membrane suspension (yielding a final membrane protein concentration of 50 μg/ml) in assay buffer (120 mM NaCl, 2 mM KCl, 10 mM Hepes, 1 mM MgCl2, 1 mM CaCl2, pH 7.5) […] of [^3H]-(R)NPTS (0.5 nM final) were added in assay buffer. For competition experiments 10 μl of buffer or unlabeled compound solution obtained from dilution series of test compounds in DMSO followed. An intermediate 1:10 dilution in assay buffer yielded a final DMSO concentration of 1%. Non-specific binding was determined in the presence of 10 μM Org24598 (or its racemate Org24461) for [^3H]-(R)-NPTS. After incubation at room temperature for 1 h, the incubation mixture was harvested (Tomtec Mach III U Harvester) through 96-well GF/B filter plates (PerkinElmer), presoaked for 1 h with 40 μl per well of 0.1% polyethylene-imine (PEI). After washing twice with ice-cold 50 mM Tris-HCl pH 7.4 buffer, drying and addition of 35 μl scintillator (BetaplateScint, PerkinElmer) per well followed. The radioactivity was determined by liquid scintillation spectrometry in a MicroBeta (PerkinElmer) plate counter.
Data analysis: For binding of [^3H]-(R)-NPTS to cell membranes, the calculation of Kd and Bmax values from the saturation binding assays and the IC50 values from the displacement binding was performed by iterative non-linear regression analysis adapted from the ‘Ligand’ program (Munson and Rodbard, 1980). Radioligand displacement curves in absence or in presence of increasing concentrations of tested compounds were fitted using a one-site fit and the apparent Ki values were calculated from the IC50 values using the Cheng-Prusoff equation (Cheng and Prusoff 1973).

A further assay has as its target T2, Human GlyT1c (Homo sapiens, UniProt P48067).
T2 construct: expressed in transfected cells; host or cells: CHO (hGlyT1c_5_CHO clone)
T2 sequence (P48067 1-706): T1 sequence (P48067 1-706)
Description: Glycine uptake in recombinant hGlyT1 expressing cells. The class given is cell-based. The note with it: hGlyT1c_5_CHO cells; [3H]-glycine uptake, 60-120 min. The procedure:
1. Glycine Uptake in Recombinant hGlyT1 Expressing Cells:
Human GlyT1c expressing recombinant hGlyT1c—5_CHO cells were plated at 20,000 cells per well in 96 well Cytostar-T scintillation microplates (Amersham Biosciences) and cultured to sub-confluency for 24 h. For glycine uptake assays the culture medium was aspirated and the cells were washed once with 100 μl HBSS (Gibco BRL, #14025-050) with 5 mM L-Alanine (Merck #1007). 80 μl HBSS buffer were added, followed by 10 μl inhibitor or vehicle (10% DMSO) and 10 μl [^3H]-glycine (TRK71, Amersham Biosciences) to a final concentration of […] for initiation of glycine uptake. The plates were placed in a Wallac Microbeta (PerkinElmer) and continuously counted by solid phase scintillation spectrometry during up to 3 hours. Nonspecific uptake was determined in the presence of 10 μM Org24598. IC50 calculations were made by four-parametric logistic nonlinear regression analysis (GraphPad Prism) using determinations within the range of linear increase of [^3H]-glycine incorporation between 60 and 120 min.

pIC50, pKi: −log10 of the molar value. Structures can show the parent of a compound that is named as a salt. A value given as a limit tells only on which side of the number the result lay.

As to `Cc1cc(NCc2ccc(Cl)c(Cl)c2)c2cccc(OCCN3CCOCC3)c2n1` [Example 48, (3,4-Dichlorobenzyl)-[2-methyl-8-(2-morpholin-4-yl-ethoxy)-quinolin-4-yl]-amine dihydrochloride], at human GlyT1c transporter, the pKi is not below 7.00. The pIC50 on Human GlyT1c is not below 7.00.

For `COCCOc1cccc2c(NCc3ccc(Cl)c(Cl)c3)cc(C)nc12` [Example 49, (3,4-Dichlorobenzyl)-[8-(2-methoxyethoxy)-2-methylquinolin-4-yl]-amine], the pKi on human GlyT1c transporter was not below 7.00. For the same compound, the pIC50 on Human GlyT1c was not below 7.00.

`Cc1cc(NCc2ccc(Cl)c(Cl)c2)c2cccc(OCCN(C)C)c2n1` [Example 50, (3,4-Dichlorobenzyl)-[8-(2-dimethylamino-ethoxy)-2-methylquinolin-4-yl]-amine dihydrochloride]: the pKi at human GlyT1c transporter was not below 7.00. Further, the pIC50 on Human GlyT1c was not below 6.00.

`Cc1cc(NCc2ccc(Cl)c(Cl)c2)c2cccc(OCC(C)C)c2n1` [Example 51, (3,4-Dichlorobenzyl)-(8-isobutoxy-2-methylquinolin-4-yl)-amine]: at human GlyT1c transporter, the pKi is not below 6.00. Besides, on Human GlyT1c, the pIC50 was not below 6.00.

For the compound `Cc1cc(NCc2ccc(Cl)c(Cl)c2)c2cccc(OCCN3CCCC3)c2n1` [Example 52, (3,4-Dichlorobenzyl)-[2-methyl-8-(2-pyrrolidin-1-yl-ethoxy)-quinolin-4-yl]-amine], on human GlyT1c transporter, the negative-log Ki (pKi) was not below 7.00. Besides, the pIC50 on Human GlyT1c is not below 6.00.

`C=CCN1CCCC[C@H]1[C@@H](Nc1cc(C)nc2c(OC)cccc12)c1ccccc1` [Example 53, [(S)—((S)-1-Allylpiperidin-2-yl)-phenylmethyl]-(8-methoxy-2-methylquinolin-4-yl)-amine]: the pKi on human GlyT1c transporter was not below 5.00. In addition, at Human GlyT1c, the pIC50 is not below 4.00.

Consider `COc1cccc2c(N[C@@H](c3ccccc3)[C@@H]3CCCCN3)cc(C)nc12` [Example 54, (8-Methoxy-2-methylquinolin-4-yl)-((S)-phenyl-(S)-piperidin-2-yl-methyl)-amine], for which the pKi on human GlyT1c transporter is not below 6.00. Moreover, the pIC50 at Human GlyT1c was not below 6.00.

With `Cc1cc(NCc2ccc(Cl)c(Cl)c2)c2cccc(Oc3ccccn3)c2n1` [Example 55, (3,4-Dichlorobenzyl)-[2-methyl-8-(pyridin-2-yloxy)-quinolin-4-yl]-amine], the pKi at human GlyT1c transporter is not below 6.00. For the same compound, the pIC50 on Human GlyT1c is not below 5.00.

As for `Cc1cc(NCc2ccc(Cl)c(Cl)c2)c2cccc(OC(F)(F)F)c2n1` [Example 56, (3,4-Dichloro-benzyl)-(2-methyl-8-trifluoromethoxyquinolin-4-yl)-amine], at human GlyT1c transporter, the pKi is not below 6.00. Also, the pIC50 on Human GlyT1c was not below 7.00.

For the compound `COc1cccc2c(N[C@@H](C)c3ccc(Cl)cc3)cc(C)nc12` [Example 57, [(S)-1-(4-Chlorophenyl)-ethyl]-(8-methoxy-2-methylquinolin-4-yl)-amine], on human GlyT1c transporter, the pKi is not below 5.00. Further, the pIC50 on Human GlyT1c is not below 4.00.

`COc1cccc2c(N[C@H](C)c3ccc(Cl)cc3)cc(C)nc12` [Example 58, [(R)-1-(4-Chlorophenyl)-ethyl]-(8-methoxy-2-methylquinolin-4-yl)-amine]: the negative logarithm of the Ki (pKi) at human GlyT1c transporter was not below 7.00. For the same compound, at Human GlyT1c, the pIC50 was not below 6.00.

As to `C=CCN1CCCC[C@H]1[C@@H](Nc1cc(C)nc2ccccc12)c1ccccc1` [Example 59, [(S)—((S)-1-Allylpiperidin-2-yl)-phenylmethyl]-(2-methylquinolin-4-yl)-amine], the pKi at human GlyT1c transporter is not below 5.00. In addition, the pIC50 at Human GlyT1c is not below 4.00.

As to `Cc1cc(N[C@@H](c2ccccc2)[C@@H]2CCCCN2)c2ccccc2n1` [Example 60, (2-Methylquinolin-4-yl)-((S)-phenyl-(S)-piperidin-2-yl-methyl)-amine], the pKi on human GlyT1c transporter was not below 6.00. Besides, the pIC50 on Human GlyT1c was not below 6.00.

In the case of `Cc1cc(N[C@@H](c2ccccc2)[C@@H]2CCCCN2C)c2ccccc2n1` [Example 61, (S)—((S)-1-Methylpiperidin-2-yl)-phenylmethyl]-(2-methylquinolin-4-yl)-amine dihydrochloride], the pKi on human GlyT1c transporter was not below 5.00. Moreover, on Human GlyT1c, the pIC50 was not below 5.00.

For `COc1cccc2c(NC(CN3CCOCC3)c3ccccc3)cc(C)nc12` (stereo not drawn) [Example 62, (8-Methoxy-2-methylquinolin-4-yl)-(2-morpholin-4-yl-1-phenyl)-ethylamine], the pKi at human GlyT1c transporter was not below 5.00. The pIC50 at Human GlyT1c is not below 5.00.

On to `COc1cccc2c(NC(CN3CCCCC3)c3ccccc3)cc(C)nc12` (stereo not drawn) [Example 63, (8-Methoxy-2-methyl-quinolin-4-yl)-(1-phenyl-2-piperidin-1-yl)-ethylamine], for which the pKi at human GlyT1c transporter was not below 5.00. At Human GlyT1c, the pIC50 is not below 4.00.

As to `COc1cccc2c(NC(c3ccccc3)c3ccc(Cl)cc3)cc(C)nc12` (stereo not drawn) [Example 64, [(4-Chlorophenyl)-phenylmethyl]-(8-methoxy-2-methylquinolin-4-yl)-amine], the negative-log Ki (pKi) on human GlyT1c transporter is not below 5.00. The pIC50 on Human GlyT1c is not below 5.00.

For the compound `COc1cccc2c(NC(CN3CCOCC3)c3ccc(Cl)cc3)cc(C)nc12` (stereo not drawn) [Example 65, [1-(4-Chlorophenyl)-2-morpholin-4-yl-ethyl]-(8-methoxy-2-methylquinolin-4-yl)-amine], at human GlyT1c transporter, the pKi was not below 5.00. Also, the negative logarithm of the IC50 (pIC50) at Human GlyT1c is not below 5.00.

In the case of `COc1cccc2c(NC(CN3CCCCC3)c3ccc(Cl)cc3)cc(C)nc12` (stereo not drawn) [Example 66, [1-(4-Chlorophenyl)-2-piperidin-1-yl-ethyl]-(8-methoxy-2-methylquinolin-4-yl)-amine], on human GlyT1c transporter, the pKi is not below 5.00. Besides, on Human GlyT1c, the pIC50 was not below 5.00.

For the compound `COc1cccc2c(NC(CN3CCCC3)c3ccc(Cl)cc3)cc(C)nc12` (stereo not drawn) [Example 67, [1-(4-Chloro-phenyl)-2-pyrrolidin-1-yl-ethyl]-(8-methoxy-2-methyl-quinolin-4-yl)-amine], the pKi at human GlyT1c transporter is not below 6.00. At Human GlyT1c, the pIC50 was not below 5.00.

For the compound `COc1cccc2c(NC(CN3CCCC3)c3ccccc3)cc(C)nc12` (stereo not drawn) [Example 69, (8-Methoxy-2-methylquinolin-4-yl)-(1-phenyl-2-pyrrolidin-1-ylethyl)-amine], the pKi at human GlyT1c transporter is not below 5.00. Further, the pIC50 on Human GlyT1c was not below 5.00.

In the case of `COc1cccc2c(NC(c3ccc(Cl)cc3)c3nccn3C)cc(C)nc12` (stereo not drawn) [Example 70, [(4-Chlorophenyl)-(1-methyl-1H-imidazol-2-yl)-methyl]-(8-methoxy-2-methylquinoline-4-yl)amine], the pKi on human GlyT1c transporter is not below 5.00. The pIC50 at Human GlyT1c was not below 4.00.

For `COc1cccc2c(NC(CN(C)C)c3ccccc3)cc(C)nc12` (stereo not drawn) [Example 71, N*1*-(8-Methoxy-2-methylquinolin-4-yl)-N*2*,N*2*-dimethyl-1-phenylethane-1,2-diamine], the pKi on human GlyT1c transporter was not below 7.00. Moreover, at Human GlyT1c, the pIC50 is not below 6.00.

For `COc1cccc2c(NC(c3ccc(Cl)cc3)C3CC3)cc(C)nc12` (stereo not drawn) [Example 72, [(4-Chlorophenyl)-cyclopropylmethyl]-(8-methoxy-2-methylquinolin-4-yl)-amine], the negative-log Ki (pKi) at human GlyT1c transporter was not below 6.00. For the same compound, the negative-log IC50 (pIC50) on Human GlyT1c is not below 5.00.

In general, pKi refers to −log10 of the Ki, conventionally taken in molar units. As a reminder, the pIC50 is the negative decadic logarithm of the IC50, by convention in mol/L.
